Data on 6 molecules can be found in US20260151363A1, “MELANOGENESIS INHIBITION COMPOSITIONS AND METHODS OF USE THEREOF” (MDI BIOLOGICAL LABORATORY, priority 2023, published 2026).

One series deals with melanin production. Briefly: Melanin production and toxicity, ML233 analogs in parallel with ML233 (serial dilution). The following applies: for toxicity: 25 μM. Here is the method:
The ML233 analogs were tested in parallel with serial dilution in DMSO: at 25 μM, 12.5 μM, […], 3.12 5 μM, 1.5625 μM and […].

For series [1], the system named is ME1154B human melanoma line. Briefly: cells. The series is classed as cell-based. The following applies: ME1154B 3D organoids, read-out: IC50 viability/proliferation. Here is the method: (§1) Because ML233 affected B16F10 murine melanoma-cell proliferation, the proliferative potential of human metastatic melanoma was determined. Patient-derived xenograft organoids (PDXOs), which were 3D in vitro models generated from patient tumors, were used. The effect of ML233 treatment (between 0.001 μM and 10 μM) in two different human melanoma cell lines collected from metastasis, ME1154B and ME2319B (Crown Bioscience). These two melanoma lines differed in their sensitivity to both ML233 and the control molecule, staurosporine (STS), in 3D organoids (FIGS. 12A-12B).

Series [2] concerns tyrosinase. Briefly: In vitro tyrosinase activity (FIG. 3B). The following applies: compared to DMSO. Format: biochemical. The text has this:
The effect of ML233 on tyrosinase activity was also explored in in vitro experiments.

The subject of series [3] is tyrosinase. Briefly: Tyrosinase activity in treated zebrafish embryos (absorbance of L-DOPA). Format: in vivo. The method, then:
To determine the effect of ML233 on tyrosinase activity, zebrafish embryos were treated with ML233 at the following concentrations: 0.5 micromolar, 1.25 micromolar, 2.5 micromolar, five micromolar, 10 micromolar, and 15 micromolar ML233 (FIG. 3A). DMSO was used as a carrier and the tyrosinase inhibitor PTU was used as a positive control.

Series [4] concerns B16F10 murine melanoma cells. Put plainly: Melanin production in B16F10 cells (OD 410, IBMX-stimulated). Format: cell-based. Here is the method: To determine if ML233 could inhibit pigmentation of […] cells at low ML233 concentrations (without effects on cell proliferation), melanin production was analyzed in B16F10 cells after 24 hours of treatment with 0.625 μM, 1.25 μM, 2.5 μM, or 5 μM of ML233. Observation of cell pellets after centrifugation confirmed that ML233 function to inhibit melanin production was conserved in mammals (data not shown). The effect of ML233 and 3-isobutyl-1-methylxanthine (IBMX) on melanin production was analyzed in B16F10 murine melanoma cells. IBMX is a non-selective phosphodiesterase inhibitor, which induced melanin production in B16F10 murine melanoma cells. Melanin production was measured in cells treated with IBMX alone (100 micromolar), and IBMX in conjunction with: 0.625 micromolar ML233, 1.25 micromolar ML233, 2.5 micromolar ML233, and five micromolar ML233, as well as in negative control cells treated with DMSO vehicle alone. Melanin production in treated cells was measured using optical density (FIG. 6A) at a wavelength of 410 nm (OD value 410). Ratios with the total quantity of protein (OD value 562) were calculated (FIG. 6B). […] P-values are indicated in the bar charts.

The subject of series [5] is zebrafish embryos. Briefly: Bulk RNAseq and GSEA in WT and aplnr KO zebrafish embryos. Format: in vivo. The settings on record: 0.5 μM. The text has this: Because ML233 is an agonist of the apelin receptors, ML233 driven differential expression in an apelin dependent and independent manner was investigated. […] A clear separation in gene expression between the WT and KO backgrounds was observed (FIG. 10C).

The test system of series [6] is ME2319B human melanoma line. Briefly: PDXO viability/proliferation, ME2319B. The series is classed as cell-based. The settings on record: ME2319B 3D organoids. Here is the method:
as §1

For series [7], the system named is zebrafish embryos. Put plainly: Percent melanin quantity in zebrafish embryos. The series is classed as in vivo. The method, then:
The effect of ML233 on percent melanin quantity was assayed in zebrafish embryos beginning at 4 hours post-fertilization and ending at 48 hours. Developing embryos were treated with ML233 in DMSO carrier at varying dosages, or DMSO as a negative control or with phenylthiourea (PTU) as a positive control.

Series [8] has as its system zebrafish embryos. Put plainly: Zebrafish embryo viability / toxicity. The series is classed as in vivo. The following applies: 2.5, five. The text has this: Studies were undertaken to evaluate the effect of ML233 on embryo viability. […] The number of viable and dead embryos at 1 day post fertilization (dpf), 2 dpf, 3 dpf and 4 dpf and at various doses of ML233 was compared to embryo viability in negative controls, which included embryos treated with the carrier DMSO or untreated embryos. (FIG. 4A).

The next series has as its system B16F10 (murine melanoma). Briefly: Tyrosinase protein expression (Western blot) and pigmentation in B16F10 cells. Format: cell-based. The settings on record: 5 μM. The method, then:
To study these two possibilities, an antibody raised against the human tyrosinase protein was used. The capacity of the antibody to recognize TYR in two different mammalian cell lines (FIG. 11A): B16F10 (murine melanoma) and A375 (human melanoma) was tested. Using the validated antibody, the level of tyrosinase protein expression by Western blot in control DMSO and 5 μM ML233 treated cells (FIG. 11B) was analyzed.

Series [9] concerns tyr, dct, and mitfa mRNA expression. Put plainly: RT-qPCR of tyr, dct and mitfa mRNA in zebrafish embryos. The series is classed as in vivo. The method, then:
(§2) Example 10: Tyrosinase gene expression was not abolished by ML233 treatmentTo better understand the molecular action of ML233 on skin pigmentation and melanogenesis, the expression of genes involved in melanogenesis, including tyrosinase (tyr), dopachrome tautomerase (dct), and microphthalmia-associated transcription factor (mitfa), the latter which is known to control melanocyte formation and TYR expression, was analyzed.

Series [10] has as its system B16F10 murine melanoma cell line. Briefly: B16F10 melanoma cell proliferation / viability. The following applies: Mus musculus, B16-F10. The series is classed as cell-based. Here is the method:
ML233 reduced pigmentation in a mammalian melanoma cell line. In vivo, in vitro, and computational studies described here supported the hypothesis that ML233 was a direct inhibitor of TYR protein expression and function. The effects of ML233 and cisplatin on the proliferation of B16F-10 murine melanoma cells in vitro was analyzed. To determine the effects of conservation in higher vertebrate species, ML233 activity in the B16F10 murine melanoma cell line was tested. B16F10-cell proliferation was analyzed after ML233 treatment to determine IC50. A 50% reduction in cell viability at concentrations of ML233 between 5 and 10 μM was observed (FIG. 5A). Cells were treated with various concentration of ML233 or cisplatin and the cell viability of control percent versus the concentration of ML233 or cisplatin (in μM) was analyzed (FIGS. 5A and 5B).

In another series the test system is mushroom TYR. Briefly: Mushroom TYR conversion of L-DOPA to melanin in vitro (FIG. 3C). The series is classed as biochemical. The settings on record: 20 μM; compared to DMSO. The method, then:
To determine whether ML233, a small inhibitor of melanogenesis, acts directly on tyrosinase (TYR) activity in vitro, the activity of mushroom TYR was assessed via measurement of its capacity to convert L-DOPA to melanin in vitro using Kojic Acid at 100 μM as a positive control.

A further series has as its system mitfa and tyr genes. Put plainly: In situ hybridization of mitfa and tyr in zebrafish embryos. The following applies: for tyr mRNA detection (in situ hybridization): embryos at 48 hpf, treated between 24 and 48 hpf. Format: in vivo. Here is the method: as §2
Series [11] deals with tyrosinase. Briefly: Tyrosinase expression by Western blot and densitometry (FIG. 9). The settings on record: 15 μM. The method, then:
An analysis of tyrosinase expression after ML233 treatment was performed. […] Quantitative analysis was also performed using densitometry of tyrosinase expression after ML233 treatment at 15 μM of the Western blot data (FIG. 9B). DMSO was a negative control, while phenylthiourea (PTU), which is a potent inhibitor of human tyrosinase), was used as a positive control. CRISPR was used as a specificity control of the antibody used in the analysis, where CRISPR was directed against the tyrosinase gene.

Series [12] relates to zebrafish embryos. Put plainly: Pigmentation of zebrafish embryos (micrographs). The series is classed as in vivo. The method, then: Zebrafish embryos were allowed to develop in the presence of ML233 and the effects of ML233 on pigmentation was analyzed. ML233 was dissolved in carrier Dimethylsulfoxide (DMSO). Embryos were exposed to ML233 beginning at four hours post-fertilization and ending at 48 hours post-fertilization. Dimethylsulfoxide (DMSO) was used as a negative control. ML233 dosages tested were 2.5 micromolar, five micromolar, and 10 micromolar (FIG. 1A).
The effect of ML233 on pigmentation was analyzed in zebrafish embryos at 38 hours post-fertilization when larvae were highly pigmented. Embryos were treated with ML233 at the following concentrations: 5 micromolar, 10 micromolar, and 15 micromolar. The carrier, DMSO, was used as a negative control. Pigmentation was analyzed six hours (FIG. 2A) and 24 hours after ML233 addition (FIG. 2B).

[13] abbreviates: serial dilution 25 μM to 0.78125.

Like-named read-outs stand apart in the source and are kept apart here.

As to `CC1=C/C(=N/OS(=O)(=O)c2ccccc2)C(C(C)C)=CC1=O` [(i), [(Z)-(5-methyl-4-oxo-2-propan-2-ylcyclohexa-2,5-dien-1-ylidene)amino]benzenesulfonate], the toxicity result in the series on melanin production is “higher toxicity”. Besides, the “inhibition of melanin production” value in the series with melanin production (setting [13]) is recorded as “Inhibition of melanin production was also observed”.

`CC1=CC(=O)C(C2CCCCC2)=C/C1=N\OS(=O)(=O)c1ccccc1` [ML233, (E)-2-cyclohexyl-5-methyl-4-(phenylsulfonyloxyimino)cyclohexa-2,5-dienone]: the IC50 is 1.65 µM in series [1]; 5 to 10 µM in [10] (B16F10, read-out: concentration giving 50% reduction in cell viability); 10 µM in series [10] (B16F10 proliferation, read-out: in vitro IC50). Further, the “reduction of tyrosinase activity” value with tyrosinase [2] (20 micromolar) is “greater than 40%”; with tyrosinase [2] (30 micromolar), 50%. Moreover, in the series on tyrosinase [3] (10 micromolar and 15 micromolar ML233 groups), the “percent of tyrosinase activity compared with PTU” value is listed as “comparable to PTU”. Besides, the tyrosinase activity result in the series with tyrosinase [3] (concentration as low as 0.5 micromolar) is reported as “significantly reduced”. Moreover, the “melanogenesis (melanin OD 410; ratio to protein OD 562)” value in series [4] (IBMX 100 micromolar plus 0.625, 1.25, 2.5 or five micromolar ML233) was “reduced melanogenesis in mammalian melanoma cells at all dosages”. In series [4] (between 0.625 and 5 μM), the B16F10 cells survival result is reported as “without affecting B16F10 cells survival”. For the same molecule, in series [4] (concentrations as low as 0.625 μM), the “melanoma-cell pigmentation (absorbance quantification of melanin)” value is “significantly reduced”. Besides, in the series with zebrafish embryos [5], the “impact on biological processes (GSEA)” value was “did not significantly impact biological processes”. Also, the viability entry in series [6] (between 0.001 μM and 10 μM) was “did not affect ME2319B viability at any concentration tested”. Further, the “melanin production (percent melanin quantity)” value in the series on zebrafish embryos [7] (0.5 to 15 micromolar, 4 to 48 hours post-fertilization) is “significantly inhibited melanin production at all levels tested”. Moreover, in the series on zebrafish embryos [7] (5 micromolar and above), the “melanin quantity compared with PTU” value is “comparable to treatment with PTU”. Besides, the “percent viability at day four post fertilization” value with zebrafish embryos [8] (10 and 20 micromolar) is listed as “No deleterious effects on zebrafish viability”. Further, the “toxicity (viable and dead embryos at 1 to 4 dpf)” value in the series on zebrafish embryos [8] (10 and 20 micromolar from 4 hours post-fertilization) is on record as “low toxicity at effective concentrations”. In addition, the “inhibition of melanin production” value in the series with melanin production (3.125 μM and lower concentrations) is “very efficient at inhibiting melanin production”. The pigmentation of cells entry in the series with B16F10 (murine melanoma) is “strong reduction in the pigmentation”. Besides, in the series with B16F10 (murine melanoma) (vs DMSO), the “TYR protein expression normalized with Beta-actin” value is reported as “no significant reduction of TYR protein expression”. In addition, in [9] (5 μM and greater), the “tyr expression by RT-qPCR” value is reported as “Significantly decreased”. In [9] (20 μM, compared to DMSO-treated embryos), the “maximum reduction of tyr expression” value is roughly 40%. In addition, the “mitfa expression by RT-qPCR” value in series [9] (any concentration) is “not significantly dysregulated”. Further, the “tyr, dct, and mitfa mRNA expression by RT-qPCR” value in series [9] (embryos at 2 dpf after 1 day of treatment) is “mild reduction of gene expression”. In addition, the “reduction of melanogenesis (L-DOPA to melanin)” value with mushroom TYR is reported as roughly 40%. Further, in the series on mitfa and tyr genes (2 dpf after 1 day of 15 μM), the “mitfa and tyr gene expression in melanocytes (in situ hybridization)” value is “still expressed in melanocytes”. The “tyr mRNA detection (in situ hybridization)” value in the series with mitfa and tyr genes is “highly detectable”. The “tyrosinase expression (Western blot)” value in the series with tyrosinase [11] is given as “tyrosinase expression was inhibited”. The pigmentation of embryos entry is listed as “visible decrease in pigmentation” in the series on zebrafish embryos [12] (2.5, five and 10 micromolar, exposure 4 to 48 hours post-fertilization, vs DMSO); “reduced pigmentation at all dosages” with zebrafish embryos [12] (treated at 38 hours post-fertilization, 5, 10, 15 micromolar, six hours and 24 hours after addition).

Turning to `CC1=CC(=O)C(C(C)C)=C/C1=N\OS(=O)(=O)c1ccccc1` [(iii), [(E)-(2-methyl-4-oxo-5-propan-2-ylcyclohexa-2,5-dien-1-ylidene)amino]benzenesulfonate], the toxicity entry with melanin production is reported as “higher toxicity”. Also, the “inhibition of melanin production” value in the series on melanin production (setting [13]) was “Inhibition of melanin production was also observed”.

With “[(E)-(5-methyl-4-oxo-2-propan-2-ylcyclohexa-2,5-dien-1-ylidene)amino]4-methylbenzenesulfonate [(ii)]”, the “inhibition of melanin production” value with melanin production (setting [13]) is given as “Inhibition of melanin production was also observed”.

For `NC(=S)Nc1ccccc1` [PTU, phenylthiourea, reference compound], the “tyr mRNA detection (in situ hybridization)” value with mitfa and tyr genes was “highly detectable”.

Regarding `CN[C@@H]1C[C@H]2O[C@@](C)([C@@H]1OC)n1c3ccccc3c3c4c(c5c6ccccc6n2c5c31)C(=O)NC4` [STS, staurosporine, reference compound], in [6] (Homo sapiens), the IC50 worked out at 0.0025 µM.
